Results reported in patent publication US8940325B2, “Use of synthetic polysulphated oligosaccharides as cleaning agents for a wound” (Laboratories Urgo, priority 2010, dated 2015).

Molecular target: T1, fibrin matrix (Homo sapiens, UniProt P02671+P02675+P02679)
T1 construct: 15 mg of human plasma fibrinogen (Sigma-Aldrich Catalog); purchased Sigma-Aldrich; host or cells: human plasma
T1 sequence (P02671 20-644 isoform P02671-2 limits assumed): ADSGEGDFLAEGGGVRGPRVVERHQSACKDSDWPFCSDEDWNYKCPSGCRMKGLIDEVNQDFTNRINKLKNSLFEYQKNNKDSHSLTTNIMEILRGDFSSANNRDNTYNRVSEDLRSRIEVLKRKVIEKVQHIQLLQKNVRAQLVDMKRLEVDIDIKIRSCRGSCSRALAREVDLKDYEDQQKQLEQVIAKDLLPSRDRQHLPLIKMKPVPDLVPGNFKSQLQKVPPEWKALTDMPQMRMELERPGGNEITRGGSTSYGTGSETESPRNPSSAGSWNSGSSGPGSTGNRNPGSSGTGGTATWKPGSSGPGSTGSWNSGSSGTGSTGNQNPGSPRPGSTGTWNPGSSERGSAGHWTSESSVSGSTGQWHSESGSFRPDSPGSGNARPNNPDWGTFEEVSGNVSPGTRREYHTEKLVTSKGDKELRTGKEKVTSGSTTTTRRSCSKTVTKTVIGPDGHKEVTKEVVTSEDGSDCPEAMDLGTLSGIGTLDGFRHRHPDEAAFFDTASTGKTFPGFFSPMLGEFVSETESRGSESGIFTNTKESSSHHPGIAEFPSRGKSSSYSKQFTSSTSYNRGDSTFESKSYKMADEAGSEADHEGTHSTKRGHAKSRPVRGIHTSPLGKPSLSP
T1 sequence (P02675 45-491 limits assumed): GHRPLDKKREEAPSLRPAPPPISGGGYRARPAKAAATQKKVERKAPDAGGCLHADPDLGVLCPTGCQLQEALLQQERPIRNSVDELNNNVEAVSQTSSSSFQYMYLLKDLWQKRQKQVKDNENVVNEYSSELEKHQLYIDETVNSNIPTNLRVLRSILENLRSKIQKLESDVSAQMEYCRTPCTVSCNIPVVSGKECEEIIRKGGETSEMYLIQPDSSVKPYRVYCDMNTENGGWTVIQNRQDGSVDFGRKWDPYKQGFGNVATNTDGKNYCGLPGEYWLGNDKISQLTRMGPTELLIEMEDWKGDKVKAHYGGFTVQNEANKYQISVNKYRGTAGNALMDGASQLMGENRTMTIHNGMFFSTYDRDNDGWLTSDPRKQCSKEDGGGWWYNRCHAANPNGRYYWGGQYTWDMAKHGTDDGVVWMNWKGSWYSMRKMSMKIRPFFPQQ
T1 sequence (P02679 27-437 isoform P02679-2 limits assumed): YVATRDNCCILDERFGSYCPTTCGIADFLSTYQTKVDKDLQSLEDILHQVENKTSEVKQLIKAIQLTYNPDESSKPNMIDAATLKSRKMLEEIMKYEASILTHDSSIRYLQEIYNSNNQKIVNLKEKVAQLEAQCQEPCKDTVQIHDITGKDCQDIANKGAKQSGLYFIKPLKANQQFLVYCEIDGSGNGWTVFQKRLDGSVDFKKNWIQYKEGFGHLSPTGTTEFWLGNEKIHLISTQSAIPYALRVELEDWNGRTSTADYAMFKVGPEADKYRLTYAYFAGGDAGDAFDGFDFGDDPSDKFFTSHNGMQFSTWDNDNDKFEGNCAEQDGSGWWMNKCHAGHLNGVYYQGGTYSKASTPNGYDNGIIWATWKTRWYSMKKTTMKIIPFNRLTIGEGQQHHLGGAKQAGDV
Assay: Degradation of fibrin matrix prepared in vitro (visual observation and PDF determination)
Type: biochemical
Details: solution at 10 g/l, 48 hours
Method: The fibrin matrices were prepared according to Brown's protocol described in the work “Fibroblast migration in fibrin gel matrices” Am J. Pathol, 1993, 142: 273-283.
The following were dissolved at 37° C.: • 5 ml of an aqueous solution comprising 50 millimoles of Hepes (Sigma-Aldrich Catalog) • 15 mg of human plasma fibrinogen (Sigma-Aldrich Catalog) • 5 millimoles of CaCl2.
50 μl of thrombin, 100 NIH of human plasma (Sigma-Aldrich Catalog) were added to the solution thus prepared.
The reaction mixture was mixed, put in a 15-ml tube (or a Petri dish of 60 mm diameter) and then left to incubate at 37° C.
During the first 24 hours of incubation at 37° C., a fibrin matrix which has roughly the appearance of a gel was seen to appear.
In parallel, a control solution was prepared free from the test compound with phosphate-buffered saline (PBS).
The degradation of the fibrin matrix was monitored visually over the next 24 and 48 hours. […]
In order to quantify and verify that the observations made do indeed correspond to degradation of the fibrin matrix, the products of degradation of fibrin (PDFs) were determined 24 hours or 48 hours after adding the solutions of the test compound. […]
This solution was tested according to the protocol described above and the PDFs were measured 48 hours after adding the solution to the fibrin matrix. […]

SMILES: O=S(=O)([O-])OC[C@H]1O[C@@](COS(=O)(=O)[O-])(O[C@H]2O[C@H](COS(=O)(=O)[O-])[C@@H](OS(=O)(=O)[O-])[C@H](OS(=O)(=O)[O-])[C@H]2OS(=O)(=O)[O-])[C@@H](OS(=O)(=O)[O-])[C@@H]1OS(=O)(=O)[O-].[K+].[K+].[K+].[K+].[K+].[K+].[K+].[K+] [potassium salt of sucrose octasulfate]
- degradation of the fibrin matrix (level): partial degradation (if the value of the PDFs, expressed in μg/ml, is between 5 and 20, there is partial degradation of the fibrin matrix)
